From patent US20220062199A1, “PH[…] ACTIVATOR COMPOUNDS, COMPOSITIONS, METHODS AND USES THEREOF” (SOCIETE DES PRODUITS NESTLE S.A., priority 2019, published 2022)

Tests used:
AMPKα2β1γ1 = molecular target: T1, AMPKα2β1γ1 (Homo sapiens, UniProt P54619+P54646+Q9Y478); experiment: Activation of bacterially-expressed AMPKα2β1γ1 in vitro (HTRF-KinEASE Cisbio assay); type: biochemical; conditions: CaMKKβ-phosphorylated purified AMPK, varying concentrations, 30 mins, FIG. 1
T1 construct: His; made in house; host or cells: bacteria
Experimental: The AMPK heterotrimers were expressed in bacteria and purified through the His-α subunit by nickel purification before further purification through gel filtration. After being phosphorylated by incubation with CaMKKβ, AMPK complexes were further purified with a final gel filtration purification step. Phosphorylated purified AMPK was incubated with varying concentrations of Compound 1 or 2 for 30 mins using substrate and reagents from the HTRF-KinEASE Cisbio assay kit (STK S1 Kit). Phosphorylation of the substrate was measured by incubating with donor and acceptor antibodies for 2 h at room temperature as per the manufacturer's protocol (Coulerie et al., (2016) PMID: 27792327) and phosphorylated peptide detected by performing HTRF. The 665 nm/620 nm ratio was determined and plotted vs the log of the concentration of ligand.

[1] = test system: phosphorylation of the AMPK substrate, acetyl-CoA carboxylase (ACC), in U2OS Flp-In T-REx mammalian cells; experiment: pACC HTRF assay: phosphorylation of the AMPK substrate ACC in U2OS Flp-In T-REx cells; type: cell-based; conditions: varying concentrations, 1 h, media lacking FBS, FIG. 2
Experimental: U2OS Flp-In T-REx cells were first seeded at 50 K in a 96-well plate and left overnight at 37 C in DMEM GlutaMAX (Thermo Fisher Scientific) supplemented with 10% (vol/vol) FBS and 100 U/ml penicillin G, and 100 μg/ml streptomycin. Cells were treated for 1 h with varying concentrations of Lusianthridin in media lacking FBS and then cells were lysed in 50 μl of Cisbio lysis buffer #1 supplemented with blocking solution as per the manufacturer's protocol (Cisbio). Cells were lysed for 30 mins at room temperature before 16 μl of lysate was incubated with 4 μl of the HTRF antibodies (1:40 dilution of the acceptor and donor (p)ACC antibodies, as per the manufacturers protocol). Lysates were incubated overnight with the antibodies before 665 nm/620 nm ratio was determined using a MolecularDevices i3 plate reader (with a HTRF cartridge add-on).

T1 sequence (P54646 whole entry): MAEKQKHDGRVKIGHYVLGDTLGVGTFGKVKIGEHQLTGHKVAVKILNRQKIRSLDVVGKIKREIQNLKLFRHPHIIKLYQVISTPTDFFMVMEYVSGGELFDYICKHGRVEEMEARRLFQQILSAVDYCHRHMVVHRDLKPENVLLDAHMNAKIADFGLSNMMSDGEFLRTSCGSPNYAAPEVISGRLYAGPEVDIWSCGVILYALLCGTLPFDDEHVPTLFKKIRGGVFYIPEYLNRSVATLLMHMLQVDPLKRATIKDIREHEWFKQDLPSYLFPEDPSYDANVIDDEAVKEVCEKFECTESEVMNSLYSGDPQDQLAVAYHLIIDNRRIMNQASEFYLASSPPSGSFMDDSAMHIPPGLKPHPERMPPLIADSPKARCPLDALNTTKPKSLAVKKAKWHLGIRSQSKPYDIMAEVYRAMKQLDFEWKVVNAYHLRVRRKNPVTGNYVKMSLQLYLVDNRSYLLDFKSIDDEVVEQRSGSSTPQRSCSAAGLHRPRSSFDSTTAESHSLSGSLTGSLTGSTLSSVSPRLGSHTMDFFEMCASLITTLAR
T1 sequence (Q9Y478 whole entry): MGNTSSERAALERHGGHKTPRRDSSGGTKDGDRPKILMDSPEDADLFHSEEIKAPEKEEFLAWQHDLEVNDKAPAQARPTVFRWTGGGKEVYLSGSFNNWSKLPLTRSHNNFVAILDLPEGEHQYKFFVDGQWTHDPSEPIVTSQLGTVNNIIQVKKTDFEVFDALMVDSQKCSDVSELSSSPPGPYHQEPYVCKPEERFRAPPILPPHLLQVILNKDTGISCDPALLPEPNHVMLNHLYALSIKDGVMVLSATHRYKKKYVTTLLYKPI
T1 sequence (P54619 whole entry): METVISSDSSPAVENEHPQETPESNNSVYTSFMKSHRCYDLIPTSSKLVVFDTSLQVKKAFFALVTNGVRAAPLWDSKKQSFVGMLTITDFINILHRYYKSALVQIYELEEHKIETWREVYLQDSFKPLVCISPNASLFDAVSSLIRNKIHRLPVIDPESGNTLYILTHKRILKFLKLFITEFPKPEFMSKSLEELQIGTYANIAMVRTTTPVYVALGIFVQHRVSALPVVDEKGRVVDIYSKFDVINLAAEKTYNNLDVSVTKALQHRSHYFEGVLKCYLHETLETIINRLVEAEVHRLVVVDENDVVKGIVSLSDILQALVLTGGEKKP

| Structure (SMILES) | activation of AMPK complexes in vitro (substrate phosphorylation, 665 nm/620 nm HTRF ratio vs log concentration) (AMPKα2β1γ1) | phosphorylation of the AMPK substrate ACC (665 nm/620 nm HTRF ratio) [1] |
| --- | --- | --- |
| COc1cc(O)c2c(ccc3cccc(O)c32)c1 [Compound 2, 2-Methoxyphenanthrene-4,5-diol] | directly activate AMPK complexes in vitro | increase the phosphorylation of the AMPK substrate, ACC, in a dose-dependent manner |
| COc1cc(O)c2c(ccc3cc(O)ccc32)c1 [Compound 1, 7-Methoxyphenanthrene-2,5-diol] | directly activate AMPK complexes in vitro | increase the phosphorylation of the AMPK substrate, ACC, in a dose-dependent manner |
